From paper PMC8587043, “An Investigation into the Interaction between Double Hydroxide-Based Antioxidant Benzophenone Derivatives and Cyclooxygenase 2” (Molecules, 2021)
Read-outs that look alike come from different tables or passages of the source.

Target: T1, COX2 (Homo sapiens, UniProt P35354)
T1 construct: purchased Sino Biological Co. (Beijing, China)
T1 sequence (P35354 18-604): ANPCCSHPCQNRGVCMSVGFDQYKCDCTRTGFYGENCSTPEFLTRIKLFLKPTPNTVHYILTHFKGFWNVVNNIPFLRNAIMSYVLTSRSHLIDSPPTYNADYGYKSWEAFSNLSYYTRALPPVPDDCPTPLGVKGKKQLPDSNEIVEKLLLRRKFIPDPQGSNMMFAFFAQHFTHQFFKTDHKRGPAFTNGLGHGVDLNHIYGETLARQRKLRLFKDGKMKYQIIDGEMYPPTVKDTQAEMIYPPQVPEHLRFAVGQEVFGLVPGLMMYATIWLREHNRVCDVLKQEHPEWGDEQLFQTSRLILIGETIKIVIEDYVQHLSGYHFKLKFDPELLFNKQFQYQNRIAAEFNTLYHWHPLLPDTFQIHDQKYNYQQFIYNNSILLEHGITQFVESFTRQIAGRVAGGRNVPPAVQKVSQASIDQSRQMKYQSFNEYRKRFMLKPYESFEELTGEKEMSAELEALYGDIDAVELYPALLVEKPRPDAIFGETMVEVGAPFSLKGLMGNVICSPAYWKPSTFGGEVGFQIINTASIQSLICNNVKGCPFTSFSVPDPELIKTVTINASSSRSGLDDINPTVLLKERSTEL
Assay: Fluorescence quenching of COX2 (Stern-Volmer, double logarithm, thermodynamic parameters)
Type: binding
Settings: for KA relative to the control compound: 298 K and 310 K; for Kq (bimolecular quenching constant): Kq = Ksv/τ0; for Kd: read-out: KA (binding constant) (converted); for ΔH (enthalpy change) / ΔS (entropy change): from KA at 298 K and 310 K
From the text: The emitted fluorescence spectra of COX2 solution (6.0 × 10^−8 mol∙L^−1) without and with an increasing concentration of compounds DB2, SC2 or YB2 (7.5 × 10^−6 mol∙L^−1 to 4.5 × 10^−5 mol∙L^−1) at different temperatures are shown in Figure 4a,b, Figure 4c,d or Figure 4e,f, respectively. […] The quenching constant Kq and Stern–Volmer constant Ksv at different temperatures are usually used to identify the quenching mechanisms, static or dynamic. The former is caused by ground-state complex formation, the latter is diffusion. For the static quenching mechanism, the quenching constant decreases with temperature increase. In this part, we calculated the Kq and Ksv values by using a universally accepted Stern–Volmer equation [38]:(1) F0/F=1+Kqτ0[Q]=1+Ksv[Q] where F0 and F are the protein fluorescence intensities in the absence and the presence of quencher (compounds DB2, SC2 or YB2), respectively. Kq = Ksv/ τ0 . τ0 is the fluorescence lifetime of the fluorophore without the quencher ([…]). [Q] is the concentration of quencher. The Stern-Volmer plots of COX2 fluorescence quenching by compounds DB2, SC2 or YB2 are presented in Figure 5a, Figure 5b or Figure 5c, respectively. According to Table 1, the Ksv and Kq values for all three systems (COX2-DB2, COX2-SC2 and COX2-YB2) decreased with increasing temperature. Therefore, we considered that the quenching was static quenching. To further verify that the system was static quenching, dynamic quenching was assumed first.
For the static quenching, we can use the double logarithm equation to obtain the binding constant (KA) and the number of binding sites per protein (n):(2) lgF0−F/F=lgKA+nlg[Q]
There are four main kinds of non-covalent forces between drugs and proteins. These are electrostatic force, hydrogen bonding, hydrophobic force and van der Waals force. The kind of interaction between compounds DB2, SC2 or YB2 and COX2 can be obtained from thermodynamic parameters, including the free energy change (ΔG), enthalpy change (ΔH) and entropy change (ΔS) of the reaction. The three thermodynamic parameters can be obtained according to the published equations [42, 44]:(3) ΔG=−RTlnK (4) lnK2/K1=ΔH(1/T1−1/T2)×1/R (5) ΔG=ΔH−TΔS
The fluorescence intensity of the system was measured with a 1.0 cm quartz cell. COX2 protein was dissolved in PBS for a final concentration of 6.0 × 10^−8 mol∙L^−1. DB2, SC2 or YB2 stock solutions were prepared in singleton at 1.5 × 10^−3 mol∙L^−1 in PBS containing 0.1% DMSO. 2.0 mL COX2 solution was separately titrated by continuing additions of 10 μL compounds DB2, SC2 or YB2 solution). After incubation at 298 K or 310 K, fluorescence quenching spectra were recorded in the region 325-450 nm at a scan rate of 1200 nm∙min^−1. The local environment of Tyr and Trp residues was quite sensitive at 280 nm, so the excitation wavelength was set at this wavelength. Typically, 280 nm is also used to measure the changes in protein tertiary structure. The slit widths of emission and excitation were both fixed at 10 nm. To observe spectra behaviors of Tyr and Trp groups of COX2, the wavelength interval between the excitation and emission wavelengths (Δλ) was set as 15 nm and 60 nm, respectively. Three-dimensional fluorescence spectroscopy was obtained for an excitation range of 200–300 nm and an emission range of 325–400 nm. Appropriate buffer solutions, determined under the same operation conditions, were used as blanks. Each spectrum was recorded three times.

Row | Structure (SMILES) | Ksv (Stern-Volmer quenching constant) (298 K) | n (number of binding sites per protein) (298 K) | ΔG (free energy change) (298 K) | KA relative to the control compound | Kq (bimolecular quenching constant) (298 K) | Kd (298 K) | Ksv (Stern-Volmer quenching constant) (310 K) | n (number of binding sites per protein) (310 K) | ΔG (free energy change) (310 K) | Kq (bimolecular quenching constant) (310 K) | Kd (310 K) | ΔH (enthalpy change) | ΔS (entropy change)
1 | CCCCc1ccc(C(=O)c2c(Br)cc(O)c(O)c2O)cc1 [DB2] | 1.43 ± 0.188 ×10^4 L∙mol^−1 | 1.10 ± 0.0208 | -6.19 ± 0.0669 kcal/mol | approximately an order of magnitude larger | 1.43 ± 0.188 ×10^12 L∙mol^−1∙S^−1 | 28.2 µM | 1.14 ± 0.380 ×10^4 L∙mol^−1 | 1.03 ± 0.0633 | -5.88 ± 0.134 kcal/mol | 1.14 ± 0.380 ×10^12 L∙mol^−1∙S^−1 | 73.1 µM | -14.7 ± 1.96 kcal/mol | −120 ± 28.1 J∙K^−1
2 | CC(C)(C)c1ccc(C(=O)c2c(Cl)cc(O)c(O)c2O)cc1 [SC2] | 2.31 ± 0.988 ×10^4 L∙mol^−1 | 1.01 ± 0.0469 | -5.98 ± 0.0547 kcal/mol | approximately an order of magnitude larger | 2.31 ± 0.988 ×10^12 L∙mol^−1∙S^−1 | 41.7 µM | 2.07 ± 1.03 ×10^4 L∙mol^−1 | 1.02 ± 0.0731 | -6.14 ± 0.143 kcal/mol | 2.07 ± 1.03 ×10^12 L∙mol^−1∙S^−1 | 45.7 µM | -1.61 ± 2.18 kcal/mol | 61.2 ± 31.3 J∙K^−1
3 | CC(C)Cc1ccc(C(=O)c2c(Br)cc(O)c(O)c2O)cc1 [YB2] | 3.49 ± 1.69 ×10^4 L∙mol^−1 | 1.07 ± 0.0551 | -6.55 ± 0.0241 kcal/mol | approximately an order of magnitude larger | 3.49 ± 1.69 ×10^12 L∙mol^−1∙S^−1 | 15.7 µM | 2.58 ± 0.562 ×10^4 L∙mol^−1 | 1.07 ± 0.0306 | -6.62 ± 0.076 kcal/mol | 2.58 ± 0.562 ×10^12 L∙mol^−1∙S^−1 | 21.5 µM | -4.95 ± 1.55 kcal/mol | 22.6 ± 21.9 J∙K^−1
